Measured values: patent US20150231117A1 (Array BioPharma Inc., priority 2012, published 2015)
pIC50: −log10 of the molar value.

Legend:
AAG = target: T1, AAG; experiment: TRANSIL binding assay, AAG; design: species or system human
T1 construct: other: TRANSIL, PBS pH 7.4, 2 μM drug; other: not for other serum proteins such as albumin; fused on or other part: AGP immobilised on TRANSIL silica beads (ready-to-use kit)
Procedure: (§1) TRANSIL® Binding Methodology (www.admecell.com)—Assay Buffers: phosphate buffered saline (“PBS”), pH 7.4 (Gibco 10010) and dimethylsulfoxide (“DMSO”). Plates: Ordered from ADMEcell (Alameda, Calif.). AGP—Full Plate: TBP-0211-0096; AGP—Strip Plate: TBP-0211-1196; HSA—Full Plate: TBP-0210-0096; HSA—Strip Plate: TBP-0210-1196. Stop Solution: 100% Acetonitrile spiked with Internal Standard (0.4 μM final concentration).
(§2) Drug Dilution: Dilution of drug samples to make a final 2 μM drug concentration (1% DMSO) (used 360 μL of final diluted drug per protein testing, i.e., 720 μL to run both AAG and HSA). Brought drug up to a 10 mM stock solution in DMSO. Diluted 10 mM stock to a 200 μM (0.2 mM) stock solution (added 4 μL of 10 mM stock solution into 196 μL, of DMSO). Diluted 200 μM stock to a 20 μM stock solution (added 100 μL of 200 μM DMSO stock solution into 900 μL of PBS Buffer, pH 7.4).
(§3) Thawed the assay kit either at room temperature (approximately 3 hours) or in the refrigerator at 4° C. overnight. The plates were put in the incubator, CO2 (5%) for 30 minutes prior to addition of compound. A pre-dilution of the compounds (10-fold assay concentration) were prepared, see Drug Dilution step above. […] Test article solution (45 μL) was added to the tubes/well of the ready-to-use kit and incubated for 2 minutes. […] The concentration of the supernatant was quantified with LC/MS (API4000). […]

HSA = target: T2, HSA (Homo sapiens, UniProt P02768); experiment: TRANSIL binding assay, HSA; settings: PBS pH 7.4, 2 μM drug
T2 construct: purchased ADMEcell (Alameda, Calif.) TBP-0210-0096 / TBP-0210-1196
T2 sequence (P02768 25-609): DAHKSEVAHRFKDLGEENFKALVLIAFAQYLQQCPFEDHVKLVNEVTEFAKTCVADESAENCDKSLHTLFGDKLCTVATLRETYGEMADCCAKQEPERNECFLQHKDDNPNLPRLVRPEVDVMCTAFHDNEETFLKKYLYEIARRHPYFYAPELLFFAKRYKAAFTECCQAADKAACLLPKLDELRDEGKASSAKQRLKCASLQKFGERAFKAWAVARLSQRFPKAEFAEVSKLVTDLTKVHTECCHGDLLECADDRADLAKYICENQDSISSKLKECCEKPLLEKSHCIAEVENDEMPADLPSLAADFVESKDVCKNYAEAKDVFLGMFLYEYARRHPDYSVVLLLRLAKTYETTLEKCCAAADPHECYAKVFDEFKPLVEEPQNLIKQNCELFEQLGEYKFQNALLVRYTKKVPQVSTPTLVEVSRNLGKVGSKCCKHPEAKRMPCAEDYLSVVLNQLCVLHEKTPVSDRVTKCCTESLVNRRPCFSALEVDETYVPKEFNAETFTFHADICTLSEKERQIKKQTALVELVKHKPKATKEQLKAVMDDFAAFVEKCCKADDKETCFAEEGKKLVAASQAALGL
Procedure: as §1, §2, §3

% Fu to human plasma = format: in vitro ADME; settings: human plasma (ready-to-use bead-based binding assay kit)
Procedure: Thawed the assay kit either at room temperature (approximately 3 hours) or in the refrigerator at 4° C. overnight. The plates were put in the incubator, CO2 (5%) for 30 minutes prior to addition of compound. A pre-dilution of the compounds (10-fold assay concentration) were prepared, see Drug Dilution step above. The drug dilutions were warmed in a 37° C. water bath prior to dosing compound into plate. Caution: Check carefully the pre-dilution for any precipitation and ensure a sufficient buffer solubility and stability of your test article. Test article solution (45 μL) was added to the tubes/well of the ready-to-use kit and incubated for 2 minutes. Mixed ten times by re-suspending the beads. Re-suspended approximately half of the total volume of the vial (total volume is 450 μL). […] The vials were spun with a swing-out centrifuge for 10 minutes at 750 g. 100 μL was carefully transferred to 96-well plate. Acetonitrile (50 μL) was added with labetalol as the internal standard (0.4 μM final concentration). The plates were sealed for analysis. The concentration of the supernatant was quantified with LC/MS (API4000). See also, Brown, Karin D. supra. The result is in Table 1. pKa value was estimated using ACD/pKa DB software. Calculations: [formula]

NCI H929 MM cells = experiment: 3 day Cell Titer Blue viability assay with added AAG, NCI H929; format: cell-based, human
Text: (§4) Kit: Cell Titer-Blue Cell Viability Assay, Promega Corp. (Madison Wis.) Catalog No. G8081

RPMI-8226 MM cells = experiment: Cell Titer Blue viability assay with added AAG, RPMI 8226; format: cell-based, human
Text: as §4

KSP = target: T3, KSP (Homo sapiens, UniProt P52732); experiment: Estimated in vitro unbound IC50
T3 sequence (P52732 1-1056): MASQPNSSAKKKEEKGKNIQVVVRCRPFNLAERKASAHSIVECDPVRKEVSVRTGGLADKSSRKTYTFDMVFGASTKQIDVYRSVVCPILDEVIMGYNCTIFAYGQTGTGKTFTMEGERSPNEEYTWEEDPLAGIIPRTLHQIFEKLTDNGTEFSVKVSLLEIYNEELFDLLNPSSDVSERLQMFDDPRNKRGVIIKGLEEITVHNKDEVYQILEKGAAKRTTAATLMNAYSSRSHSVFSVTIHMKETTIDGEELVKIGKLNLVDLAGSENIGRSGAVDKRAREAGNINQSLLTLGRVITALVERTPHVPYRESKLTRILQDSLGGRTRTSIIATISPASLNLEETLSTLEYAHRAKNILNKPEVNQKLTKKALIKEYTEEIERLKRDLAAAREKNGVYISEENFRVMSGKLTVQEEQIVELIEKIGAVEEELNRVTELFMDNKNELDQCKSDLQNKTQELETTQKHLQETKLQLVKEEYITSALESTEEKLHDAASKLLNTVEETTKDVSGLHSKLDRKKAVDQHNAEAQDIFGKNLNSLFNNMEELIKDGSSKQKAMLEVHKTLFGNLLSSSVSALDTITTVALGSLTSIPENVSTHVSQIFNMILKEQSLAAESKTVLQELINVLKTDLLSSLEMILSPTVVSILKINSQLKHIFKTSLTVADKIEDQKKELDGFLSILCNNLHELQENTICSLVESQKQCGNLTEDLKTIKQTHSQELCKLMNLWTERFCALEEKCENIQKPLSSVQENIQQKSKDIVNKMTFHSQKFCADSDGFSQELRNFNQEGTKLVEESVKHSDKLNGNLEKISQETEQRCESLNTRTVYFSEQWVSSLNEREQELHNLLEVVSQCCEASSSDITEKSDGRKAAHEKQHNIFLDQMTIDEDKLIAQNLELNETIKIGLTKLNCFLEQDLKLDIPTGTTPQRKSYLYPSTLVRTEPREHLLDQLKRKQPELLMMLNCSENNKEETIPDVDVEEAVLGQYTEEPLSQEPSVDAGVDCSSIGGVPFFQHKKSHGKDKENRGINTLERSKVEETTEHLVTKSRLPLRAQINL
Procedure: Model optimization was accomplished using the QRPEM engine of Phoenix 6.3 (Pharsight Corporation, St. Louis, Mo.). Model selection was based on AIC comparisons and diagnostic plots. Simulations were for a typical patient receiving Phase 2 dose of 1.5 mg/m^2 on day 1 and day 2 with varying [AAG].

Dose limiting toxicity = settings: in vivo
Text: As such, prophylactic granulocyte colony-stimulating factory (“G-CSF”) may be administered.

[1] = system: Patients with Relapsed or Refractory Multiple Myeloma; experiment: Clinical study in patients with relapsed or refractory multiple myeloma, analysed by baseline [AAG]; format: in vivo, human
Procedure: The R&D Systems, Inc. (Minneapolis, Minn.) Quantikine® Human α1-Acid Glycoprotein Immunoassay (Catalog No. DAGPOO) is a 4.5 hour solid-phase ELISA designed to measure human AAG in cell culture supemates, serum, plasma, and urine. This assay employed the quantitative sandwich enzyme immunoassay technique. […] Standards and samples are pipetted into the wells, and any AAG present is bound by the immobilized antibody. After washing away any unbound substances, an enzyme-linked polyclonal antibody specific for AAG is added to the wells. Following a wash to remove any unbound antibody-enzyme reagent, a substrate solution is added to the wells, and color develops in proportion to the amount of AAG bound in the initial step. The color development is stopped, and the intensity of the color is measured. The assay was performed as described in the package insert, except where described otherwise below.

[2] = Phase 2 + dex (with dexamethasone), All Patients, n=18
[3] = Phase 2 + dex (with dexamethasone), [AAG] <1.1 g/L, n=12
[4] = Phase 2 Single Agent, All Patients, n=27
[5] = Phase 2 Single Agent, [AAG] <1.1 g/L, n=21

CON(C)C(=O)N1N=C(c2cc(F)ccc2F)S[C@@]1(CCCN)c1ccccc1.Cl [ARRY-520, (S)-2-(3-Aminopropyl)-5-(2,5-difluorophenyl)-N-methoxy-N-methyl-2-phenyl-1,3,4-thiadiazole-3(2H)-carboxamide]
Kd (AAG; TRANSIL, PBS pH 7.4, 2 μM drug): 5 µM | affinity for AAG in in vitro assays (AAG; not for other serum proteins such as albumin): low micromolar affinity | Kd (HSA): 147 µM | fraction unbound at 2 min (% Fu to human plasma): 0.07 | decrease of cellular sensitivity to ARRY-520 as [AAG] increases (NCI H929 MM cells; AAG 0.5-4 mg/mL final concentration, FIG. 1): greater than 30 fold | effect of increasing AAG levels on cell sensitivity (NCI H929 MM cells; NCI H929): decrease cell sensitivity | effect of increasing AAG levels on cell sensitivity (RPMI-8226 MM cells): decrease cell sensitivity | pIC50 (KSP): 9.36 | major dose limiting toxicity (DLT) (Dose limiting toxicity): neutropenia | Median Time on Study (months) ([1]; Phase 1, All Patients, n=27): 3.9 months | ≧MR, number of patients ([1]; Phase 1, All Patients, n=27): 4 | ≧MR, rate ([1]; Phase 1, All Patients, n=27): 15% | ≧PR, number of patients ([1]; Phase 1, All Patients, n=27): 3 | ≧PR, rate ([1]; Phase 1, All Patients, n=27): 11% | Median Time on Study (months) ([1]; Phase 1, [AAG] <1.1 g/L, n=20): 5.2 months | ≧MR, number of patients ([1]; Phase 1, [AAG] <1.1 g/L, n=20): 4 | ≧MR, rate ([1]; Phase 1, [AAG] <1.1 g/L, n=20): 20% | ≧PR, number of patients ([1]; Phase 1, [AAG] <1.1 g/L, n=20): 3 | ≧PR, rate ([1]; Phase 1, [AAG] <1.1 g/L, n=20): 15% | Median Time on Study (months) [1, 2]: 3.9 months | ≧MR, number of patients [1, 2]: 6 | ≧MR, rate [1, 2]: 33% | ≧PR, number of patients [1, 2]: 4 | ≧PR, rate [1, 2]: 22% | Median Time on Study (months) [1, 3]: 6.2 months | ≧MR, number of patients [1, 3]: 6 | ≧MR, rate [1, 3]: 50% | ≧PR, number of patients [1, 3]: 4 | ≧PR, rate [1, 3]: 33% | Median Time on Study (months) [1, 4]: 2.8 months | ≧MR, number of patients [1, 4]: 6 | ≧MR, rate [1, 4]: 22% | ≧PR, number of patients [1, 4]: 5 | ≧PR, rate [1, 4]: 19% | Median Time on Study (months) [1, 5]: 3.4 months | ≧MR, number of patients [1, 5]: 6 | ≧MR, rate [1, 5]: 29% | ≧PR, number of patients [1, 5]: 5 | ≧PR, rate [1, 5]: 24% | time to coming off study, most patients with high baseline [AAG] ([1]; baseline [AAG] greater than 1.1 g/L, FIG. 5): less than 5 months | increase of risk for discontinuing the study ([1]; with each 1.0 g/L increase in [AAG], p<0.01): 2.5 fold
